One may read the Aqueous Solubility as how much of the substance goes into solution per volume. Read a low Aqueous Solubility as a poorly soluble substance. As a reminder, the half-life is the time needed for the level to fall by half in the phase considered. The low end stands for fast loss, the high end for slow loss. One may read the solubility as how much of the substance goes into solution per volume. A higher solubility goes with a readily soluble substance. The term Kb denotes the affinity of an antagonist, worked out from how it opposes an agonist. Low values mean higher antagonist affinity, high ones lower antagonist affinity.

Data set [1] can be described thus: Kinetic aqueous solubility in PBS by nephelometry. The following applies: PBS buffer (pH 7.4) with 1% DMSO, nephelometry.
The next data set addresses T1, human DP1 receptor (Homo sapiens, UniProt Q13258).
T1 sequence (Q13258 1-359): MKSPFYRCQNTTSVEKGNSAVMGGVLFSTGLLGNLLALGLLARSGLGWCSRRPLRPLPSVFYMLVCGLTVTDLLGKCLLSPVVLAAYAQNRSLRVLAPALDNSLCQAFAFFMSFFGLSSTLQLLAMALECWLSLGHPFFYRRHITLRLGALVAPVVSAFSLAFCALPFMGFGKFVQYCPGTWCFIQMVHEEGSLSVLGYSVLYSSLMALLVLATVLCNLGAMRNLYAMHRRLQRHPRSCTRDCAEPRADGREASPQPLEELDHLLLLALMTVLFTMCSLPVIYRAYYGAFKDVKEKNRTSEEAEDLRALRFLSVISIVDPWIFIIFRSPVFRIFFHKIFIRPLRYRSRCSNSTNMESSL
The following applies: selectivity index DP1 KB/EP2 KB, fold.

A further data set addresses human IP receptor (Homo sapiens, UniProt P43119). Put plainly: Cell-based cAMP TR-FRET assay on IP (agonist iloprost). The following applies: selectivity index IP KB/EP2 KB, fold. For orientation: In TR-FRET formats the signal depends on donor and acceptor labels being close together.
The next data set is described as follows: in vivo. The settings on record: C57BL/6, mouse, ip, 10 mg/kg.
The next data set is described as follows: physchem. The following applies: pH 2, simulated gastric fluid, kinetic from dmso stock.
A further data set concerns the target human EP4 receptor (Homo sapiens, UniProt P35408). Nature of the data set: Cell-based cAMP TR-FRET assay on EP4 (agonist PGE2). The settings on record: selectivity index EP4 KB/EP2 KB, fold.
A further data set deals with T2, human EP2 receptor (Homo sapiens, UniProt P43116).
T2 construct: expressed in transfected cells
T2 sequence (P43116 whole entry): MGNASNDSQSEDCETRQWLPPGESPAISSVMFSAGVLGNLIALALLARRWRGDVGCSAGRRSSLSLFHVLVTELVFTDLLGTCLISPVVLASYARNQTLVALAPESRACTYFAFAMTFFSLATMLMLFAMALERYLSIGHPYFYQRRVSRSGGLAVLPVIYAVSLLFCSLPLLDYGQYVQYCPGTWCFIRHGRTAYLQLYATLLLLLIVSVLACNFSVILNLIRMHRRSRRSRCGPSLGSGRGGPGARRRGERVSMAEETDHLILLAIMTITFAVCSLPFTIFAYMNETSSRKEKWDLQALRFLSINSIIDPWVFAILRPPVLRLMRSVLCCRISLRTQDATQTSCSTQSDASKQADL
Put plainly: Cell-based cAMP TR-FRET assay, Schild KB on EP2. The settings on record: for Kb: Schild KB, agonist PGE2, antagonist concentration 1 μM, C6G cells expressing human EP2.

A short description of data set [2]: Thermodynamic shake flask solubility in neat water.
Data set [3] is described as follows: Mouse liver microsomal (MLM) stability. A general note: Liver microsomes are a subcellular fraction often used to study metabolism.

Structures can show the parent of a compound that is named as a salt. Some results are limits rather than exact numbers.

Chain of human IP receptor (P43119 whole entry): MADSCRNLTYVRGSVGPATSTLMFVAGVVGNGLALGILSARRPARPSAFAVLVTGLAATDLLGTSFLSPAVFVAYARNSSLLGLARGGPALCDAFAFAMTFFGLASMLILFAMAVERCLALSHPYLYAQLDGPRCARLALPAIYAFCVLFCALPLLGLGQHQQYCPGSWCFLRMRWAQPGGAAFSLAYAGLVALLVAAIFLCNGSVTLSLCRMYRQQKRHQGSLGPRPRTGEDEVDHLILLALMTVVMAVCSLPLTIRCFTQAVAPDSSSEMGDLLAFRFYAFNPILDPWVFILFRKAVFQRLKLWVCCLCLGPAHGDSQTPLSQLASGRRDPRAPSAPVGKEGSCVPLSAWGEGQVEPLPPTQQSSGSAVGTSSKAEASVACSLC
Chain of human EP4 receptor (P35408 whole entry): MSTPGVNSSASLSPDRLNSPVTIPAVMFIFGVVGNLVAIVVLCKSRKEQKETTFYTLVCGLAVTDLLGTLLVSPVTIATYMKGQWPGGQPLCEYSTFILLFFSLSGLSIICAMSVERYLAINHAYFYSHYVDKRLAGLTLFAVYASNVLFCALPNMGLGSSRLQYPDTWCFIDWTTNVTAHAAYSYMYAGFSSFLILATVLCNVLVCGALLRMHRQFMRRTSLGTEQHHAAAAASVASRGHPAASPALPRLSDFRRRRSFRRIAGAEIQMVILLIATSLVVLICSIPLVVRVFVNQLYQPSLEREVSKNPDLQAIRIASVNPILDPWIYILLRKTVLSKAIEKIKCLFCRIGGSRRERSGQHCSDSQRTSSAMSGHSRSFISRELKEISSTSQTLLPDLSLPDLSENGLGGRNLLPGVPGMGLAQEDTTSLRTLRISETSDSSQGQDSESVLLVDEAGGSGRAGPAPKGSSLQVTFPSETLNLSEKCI

For `Cc1[nH]c2ccccc2c1CCNC(=O)c1cnc(Nc2ccccn2)nc1` [Compound 20a, N-(2-(2-Methyl-1H-indol-3-yl)ethyl)-2-(pyridin-2-ylamino)pyrimidine-5-carboxamide], in [1], the “Aqueous Solubility” value came out at 27 µM. For the same compound, the “S.I. (DP1/EP2)” value on human DP1 receptor is on record as >900. Moreover, the “S.I (IP/EP2)” value at human IP receptor is on record as >900.

In the case of `COc1ccccc1-c1ncc(C(=O)NCCc2c(C)[nH]c3ccccc23)cn1` [Compound 14a, 2-(2-Methoxyphenyl)-N-(2-(2-methyl-1H-indol-3-yl)ethyl)pyrimidine-5-carboxamide], in the data set “in vivo”, the half-life was < 60 min. The solubility in the data set “physchem” is > 100 µM. Also, the “Aqueous Solubility” value in data set [1] is 71 µM. The “S.I (EP4/EP2)” value on human EP4 receptor amounted to 517. Also, the “S.I (IP/EP2)” value on human IP receptor was found to be 730.

`Cc1[nH]c2ccccc2c1CCNC(=O)c1ccc(-c2cnc[nH]2)cc1` [TG8-260, 4-(1H-imidazol-5-yl)-N-(2-(2-methyl-1H-indol-3-yl)ethyl)benzamide]: the “inhibition of PGE2-induced human EP2 receptor activation” value on human EP2 receptor (concentration-response, in words) is listed as “inhibits PGE2-induced human EP2 receptor activation in a concentration dependent manner”. For the same compound, the “S.I (EP4/EP2)” value at human EP4 receptor is on record as “at least 300”. Moreover, at human DP1 receptor, the “S.I. (DP1/EP2)” value is “at least 300”. The “S.I (IP/EP2)” value on human IP receptor is “at least 300”.

On to `Cc1cc(C)nc(Nc2ncc(C(=O)NCCc3c(C)[nH]c4ccc(Cl)cc34)cn2)c1` [Compound 24b, N-(2-(5-Chloro-2-methyl-1H-indol-3-yl)ethyl)-2-((4,6-dimethylpyridin-2-yl)amino)pyrimidine-5-carboxamide], for which the Kb on human EP2 receptor is 28.3 nM. Also, the “Aqueous Solubility” value in [1] amounted to 20 µM. The “S.I (EP4/EP2)” value on human EP4 receptor is >350. Also, the “S.I (IP/EP2)” value on human IP receptor is on record as >350.

At human EP2 receptor, `COc1cccc(Nc2ncc(C(=O)NCCc3c(C)[nH]c4ccccc34)cn2)n1` [Compound 20h, 2-((6-Methoxypyridin-2-yl)amino)-N-(2-(2-methyl-1H-indol-3-yl)ethyl)pyrimidine-5-carboxamide] registered an antagonist equilibrium constant (Kb) of 7.8 nM. Moreover, in data set [1], the “Aqueous Solubility” value came out at 15 µM. Besides, on human DP1 receptor, the “S.I. (DP1/EP2)” value is given as >1280. Moreover, the “S.I (IP/EP2)” value on human IP receptor is >1280.

In the case of `Cc1cc(C)nc(Nc2ncc(C(=O)NCCc3c(C)[nH]c4ccccc34)cn2)c1` [Compound 20o.HCl, 2-((4,6-Dimethylpyridin-2-yl)amino)-N-(2-(2-methyl-1H-indol-3-yl)ethyl)pyrimidine-5-carboxamide.Hydrochloride], the “water pH after dissolving” value in [2] (2 mg/mL in neat water, starting pH 6.4) came out at 3.5. For the same compound, in data set [2] (thermodynamic solubility in water, HCl salts), the water solubility was 1000 µg/mL. Besides, in [2] (water, thermodynamic from solid), the solubility was 1100 to 1200 µg/mL.

Consider `Cc1ccnc(Nc2ncc(C(=O)NCCc3c(C)[nH]c4ccccc34)cn2)c1` [Compound 20b, N-(2-(2-Methyl-1H-indol-3-yl)ethyl)-2-((4-methylpyridin-2-yl)amino)pyramidine-5-carboxamide], for which the “MLM T½” value in [3] (1 μM compound, 0.125 mg/mL liver microsomes, NADPH) amounted to 8 min. Further, in [1], the “Aqueous Solubility” value came out at 25 µM.

At human EP2 receptor, `Cc1[nH]c2ccccc2c1CCNC(=O)c1cnc(Nc2cccnc2)nc1` [Compound 20q, N-(2-(2-Methyl-1H-indol-3-yl)ethyl)-2-(pyridin-3-ylamino)pyrimidine-5-carboxamide] registered a Kb of 8.3 nM. In data set [1], the “Aqueous Solubility” value is 17 µM. The “S.I (EP4/EP2)” value at human EP4 receptor is recorded as >1200. In addition, the “S.I (IP/EP2)” value on human IP receptor is listed as >1200.

Regarding `Cc1[nH]c2ccccc2c1CCNC(=O)c1cnc(Nc2cccc(F)n2)nc1` [Compound 20f, 2-((6-Fluoropyridin-2-yl)amino)-N-(2-(2-methyl-1H-indol-3-yl)ethyl)pyrimidine-5-carboxamide], in data set [3] (24i vs 20o, 20c vs 20b, 20f vs 20e), the “fold higher half-life in liver microsomes” value is on record as 8 fold. In data set [1], the “Aqueous Solubility” value amounted to 41 µM.

Compound `Cc1cc(C)nc(Nc2ncc(C(=O)NCCc3c(C)[nH]c4c(F)cc(F)cc34)cn2)c1` [Compound 24c, N-(2-(5,7-Difluoro-2-methyl-1H-indol-3-yl)ethyl)-2-((4,6-dimethylpyridin-2-yl)amino)pyrimidine-5-carboxamide] displayed a Kb at human EP2 receptor of 20 nM. In the data set “physchem”, the solubility is > 100 µM. Moreover, the “S.I (IP/EP2)” value on human IP receptor is >500.

These data come from US20250206721A1, “Prostaglandin Receptor EP2 Antagonists, Derivatives, and Uses Related Thereto” (Emory University, priority 2019, published 2025).
